Measurements reported in publication PMC2562941 (Molecular carcinogenesis, 2008).

Assays:
[1] = system: colorectal cancer cell lines; settings: independent of COX activity; cited from earlier work
[2] = system: COX-2^+/+ murine embryonic fibroblasts; test: Cell growth of COX-2+/+ murine embryonic fibroblasts; settings: 10 μM, after 6 days
[3] = target: T1, recombinant human COX-2 enzyme (Homo sapiens, UniProt P35354); test: COX-2-mediated PGE2 production in vitro; type: biochemical
T1 sequence (P35354 18-604): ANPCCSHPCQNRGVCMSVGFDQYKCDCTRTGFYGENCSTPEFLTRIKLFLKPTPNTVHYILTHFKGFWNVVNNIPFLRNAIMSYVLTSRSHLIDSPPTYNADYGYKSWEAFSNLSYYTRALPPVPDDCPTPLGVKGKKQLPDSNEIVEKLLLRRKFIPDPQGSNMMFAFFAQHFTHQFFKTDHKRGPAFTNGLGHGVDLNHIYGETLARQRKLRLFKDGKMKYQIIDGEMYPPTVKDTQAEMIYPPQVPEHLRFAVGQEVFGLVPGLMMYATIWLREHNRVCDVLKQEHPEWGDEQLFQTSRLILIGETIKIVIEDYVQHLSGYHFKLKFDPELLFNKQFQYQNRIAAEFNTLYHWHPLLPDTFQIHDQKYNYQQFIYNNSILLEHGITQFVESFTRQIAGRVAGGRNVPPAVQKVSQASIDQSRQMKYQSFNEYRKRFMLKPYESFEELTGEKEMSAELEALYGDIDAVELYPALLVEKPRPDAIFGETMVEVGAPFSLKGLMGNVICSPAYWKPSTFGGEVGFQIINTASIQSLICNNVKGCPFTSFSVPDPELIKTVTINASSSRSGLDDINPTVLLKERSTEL

COX-2^+/+ cells = test: COX-2-mediated PGE2 production ex vivo in COX-2+/+ cells; type: cell-based, murine; settings: for IC50: Mus musculus, read-out: IC50, suppression of PGE2 synthesis ex vivo
His-tagged COX-2 = target: T2, His-tagged COX-2 (Homo sapiens, UniProt P35354); test: Surface plasmon resonance; type: binding; settings: each at 300 μM; 0.1 μg His-COX-2; 25 °C
T2 sequence (P35354 18-604): T1 sequence (P35354 18-604)

[4] = system: HT-29 human colon cancer cells; test: Cell growth of HT-29 cells; type: cell-based; settings: each at 10 μM; growth curves over 5 days; vs untreated control
HT-29 colon cancer cells = test: Soft agar colony formation assay; type: cell-based, human; settings: HT-29 cells; 10 or 20 μM; 10 days
COX-2 = settings: ref 7 (Jang et al.); cited from earlier work
[5] = system: COX-2^−/− murine embryonic fibroblasts; test: Cell growth of COX-2-/- murine embryonic fibroblasts; settings: 10 μM, after 6 days
JB6 Cl41 cells = settings: cited from earlier work
[6] = system: 1.2-dimethylhydrazine-induced colon carcinogenesis; settings: rats; 8 mg/kg body weight every day for 30 weeks; cited from earlier work
[7] = system: three different human colon cancer cell lines; settings: cited from earlier work

SMILES	growth inhibitory effect on COX-2^+/+ cells [2]	binding with His-COX-2 (SPR sensograms) (His-tagged COX-2)	inhibition of HT-29 cell growth [4]	inhibition of anchorage-independent colony formation in soft agar (HT-29 colon cancer cells)	suppression of growth of COX-2^+/+ cells [2] [%]	effect on growth of COX-2^−/− cells [5]	IC50 (COX-2^+/+ cells) [µM]	further results
Oc1cc(O)cc(/C=C/c2ccc(O)c(O)c2)c1 [Piceatannol]								effect on cell cycle progression [1]: inhibited progression through the S phase
COc1ccc(/C=C/c2cc(OC)cc(OC)c2)cc1 [RSVL-3, 3,4’,5-trimethoxy-trans-stilbene]	not RSVL-3, exhibited potent growth inhibitory effects	does not bind	not RSVL-3, inhibited cell growth	little effect				inhibition of PGE2 synthesis in vitro [3]: not RSVL-3, inhibited PGE2 synthesis in vitro; suppression of PGE2 synthesis ex vivo (COX-2^+/+ cells; COX-2^+/+ cells): not RSVL-3, dose-dependently suppressed PGE2 synthesis
Oc1ccc(/C=C/c2cc(O)cc(O)c2)cc1 [RSVL, 3,5,4'-trihydroxy-trans-stilbene, reference compound]	potent growth inhibitory effects		[…]	[…]	[…]	unresponsive	[…]	inhibition of cyclooxygenase activity of COX-2 (COX-2): did not inhibit; concentration range of dose-dependent inhibition of cellular transformation (JB6 Cl41 cells; TPA- or EGF-induced JB6 Cl41 transformation, ref 10 (Huang et al.)): […]; effect on size of tumors [6]: markedly reduce the size of tumors
Oc1cc(O)cc(/C=C/c2cc(O)c(O)c(O)c2)c1 [RSVL-2, 3,3’,4’,5’,5-pentahydroxy-trans-stilbene]	potent growth inhibitory effects	more strongly than with RSVL	inhibited cell growth by day 4	even more strongly	80	unresponsive	50	IC50 [3]: 25 µM; inhibitory effect on EGF-induced cell transformation compared with resveratrol (JB6 Cl41 cells; EGF-induced JB6 Cl41 transformation, ref 13 (She et al.)): more potent inhibitory effect
Oc1ccc([C@@H]2c3c(O)cc4c(c3[C@@H]3c5c(O)cc6c(c5[C@H]2[C@H]3c2ccc(O)cc2)[C@@H](c2cc(O)cc(O)c2)[C@H](c2ccc(O)cc2)O6)[C@@H](c2cc(O)cc(O)c2)[C@H](c2ccc(O)cc2)O4)cc1 [Vaticanol C]								suppression of cell growth through induction of apoptosis [7]: markedly suppress cell growth
